Data on two compounds can be found in article PMC5896373 (Molecular Pharmacology, 2018).

Experiment [1] concerns chimeric P2X7/1 receptor 295–310. The experiment is described as follows: cell-based. Type of experiment: cell-based, human. To be noted: chimera 295–310.
Experimental: Additional point mutants were made using the QuikChange mutagenesis kit (Stratagene California, La Jolla, CA). The production of the correct mutations and absence of coding errors was determined by DNA sequencing (Automated ABI Sequencing Service, University of Leicester, UK). cRNA was generated for the mutants and 50 nl (50 ng) was injected into manually defoliculated stage V Xenopus laevis oocytes using an Inject+Matic microinjector (J.A. Gabay, Inject+Matic, Geneva, Switzerland). Injected oocytes were stored at 16°C in ND96 buffer [in millimolar concentrations, NaCl 96, KCl 2, CaCl2 1.8, MgCl2 1, sodium pyruvate 5, and HEPES 5 (pH 7.6) supplemented with 50 μg/ml gentamycin and 50 μg/ml tetracycline]. Three to seven days postinjection two-electrode voltage clamp recordings were made from oocytes bathed in divalent-free ND96 buffer (in millimolar concentrations, NaCl 96, KCl 2, sodium pyruvate 5, HEPES 5, and 0.1 flufenamic acid, pH 7.6). Oocytes were voltage clamped at a holding potential of −60 mV with a GeneClamp500B amplifier (Molecular Devices).
Inhibition by the antagonists was expressed as the percentage of the peak current amplitude of an EC90 concentration of ATP recorded before the application of antagonist (ATP gave reproducible responses to ATP in the absence of antagonist). Inhibition curves were fitted with the Hill equation (variable slope) using GraphPad Prism 6 (GraphPad Software, San Diego, CA). […] Individual concentration-response curves were generated for individual experiments, and statistical analysis was carried out on the data generated. […] Data are shown as mean ± S.E.M. In all cases n ≥ 3 for all data points.
Experiment [2] deals with P2X7R left flipper point mutant K281A. Nature of the experiment: Two-electrode voltage clamp of ATP-evoked currents in Xenopus oocytes. Type of experiment: cell-based, human.
Experimental: Injected oocytes were stored at 16°C in ND96 buffer [in millimolar concentrations, NaCl 96, KCl 2, CaCl2 1.8, MgCl2 1, sodium pyruvate 5, and HEPES 5 (pH 7.6) supplemented with 50 μg/ml gentamycin and 50 μg/ml tetracycline]. Three to seven days postinjection two-electrode voltage clamp recordings were made from oocytes bathed in divalent-free ND96 buffer (in millimolar concentrations, NaCl 96, KCl 2, sodium pyruvate 5, HEPES 5, and 0.1 flufenamic acid, pH 7.6). Oocytes were voltage clamped at a holding potential of −60 mV with a GeneClamp500B amplifier (Molecular Devices).
Electrophysiological traces were digitized with a Digidata 1322A and collected using pCLAMP 8.2 software (Molecular Devices, Menlo Park, CA). An EC90 concentration of ATP was used to test antagonist sensitivity for the P2X7-2Nβ and mutant receptors [ATP sensitivity of the chimeras and mutants are reported in [Allsopp et al. (2017)]] to standardize for any changes in ATP sensitivity.
Inhibition by the antagonists was expressed as the percentage of the peak current amplitude of an EC90 concentration of ATP recorded before the application of antagonist (ATP gave reproducible responses to ATP in the absence of antagonist). […] Any significant differences from the P2X7-2Nβ control were calculated by one-way analysis of variance, followed by Dunnett’s test (using GraphPad Prism 6). […]
The subject of experiment [3] is P2X7R left flipper point mutant N284A. The experiment is described as above. The class given is cell-based, human.
Experimental: The production of the correct mutations and absence of coding errors was determined by DNA sequencing (Automated ABI Sequencing Service, University of Leicester, UK). cRNA was generated for the mutants and 50 nl (50 ng) was injected into manually defoliculated stage V Xenopus laevis oocytes using an Inject+Matic microinjector (J.A. Gabay, Inject+Matic, Geneva, Switzerland). Injected oocytes were stored at 16°C in ND96 buffer [in millimolar concentrations, NaCl 96, KCl 2, CaCl2 1.8, MgCl2 1, sodium pyruvate 5, and HEPES 5 (pH 7.6) supplemented with 50 μg/ml gentamycin and 50 μg/ml tetracycline]. Three to seven days postinjection two-electrode voltage clamp recordings were made from oocytes bathed in divalent-free ND96 buffer (in millimolar concentrations, NaCl 96, KCl 2, sodium pyruvate 5, HEPES 5, and 0.1 flufenamic acid, pH 7.6). Oocytes were voltage clamped at a holding potential of −60 mV with a GeneClamp500B amplifier (Molecular Devices).
Inhibition by the antagonists was expressed as the percentage of the peak current amplitude of an EC90 concentration of ATP recorded before the application of antagonist (ATP gave reproducible responses to ATP in the absence of antagonist). Inhibition curves were fitted with the Hill equation (variable slope) using GraphPad Prism 6 (GraphPad Software, San Diego, CA). […]
For experiment [4], the target named is T1, P2X7-2Nβ 73–79 deletion (Homo sapiens, UniProt Q99572, DEL73-79/I21V/M24R/N16P/N25R/Q22R/R20V/S23N/T19I/Y26L).
T1 construct: expressed in transfected cells; host or cells: Xenopus laevis oocytes (cRNA injection)
T1 sequence (Q99572 with tags, fused parts or gaps N16P/T19I/R20V/I21V/Q22R/S23N/M24R/N25R/Y26L/DEL73-79): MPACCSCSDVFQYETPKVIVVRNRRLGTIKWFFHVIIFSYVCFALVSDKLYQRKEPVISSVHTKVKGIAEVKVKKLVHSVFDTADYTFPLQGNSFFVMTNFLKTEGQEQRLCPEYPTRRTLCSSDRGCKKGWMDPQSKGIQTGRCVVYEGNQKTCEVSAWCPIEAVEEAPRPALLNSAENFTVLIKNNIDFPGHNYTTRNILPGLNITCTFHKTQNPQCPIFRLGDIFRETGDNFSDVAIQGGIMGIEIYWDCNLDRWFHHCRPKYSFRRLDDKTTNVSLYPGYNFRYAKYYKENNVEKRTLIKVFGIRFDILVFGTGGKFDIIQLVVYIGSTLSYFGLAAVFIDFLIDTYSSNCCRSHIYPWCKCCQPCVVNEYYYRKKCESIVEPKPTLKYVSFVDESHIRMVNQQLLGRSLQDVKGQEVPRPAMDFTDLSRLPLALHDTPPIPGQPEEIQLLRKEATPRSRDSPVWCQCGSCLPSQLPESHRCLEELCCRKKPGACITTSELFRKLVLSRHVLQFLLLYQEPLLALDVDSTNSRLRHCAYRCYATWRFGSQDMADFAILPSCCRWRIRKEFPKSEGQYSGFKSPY
Also on record: method as in Allsopp et al., 2017. To be noted: ref Allsopp et al., 2017; cited from earlier work.

The target of experiment [5] is T2, chimeric P2X7/1 receptor 210–217 (Homo sapiens, UniProt Q99572, G211E/I214K/I21V/INS213AAHM/L212V/M24R/N16P/N25R/P210E/Q22R/R20V/S23N/T19I/T217L/Y26L).
T2 construct: expressed in transfected cells; host or cells: Xenopus laevis oocytes (cRNA injection)
T2 sequence (Q99572 with tags, fused parts or gaps N16P/T19I/R20V/I21V/Q22R/S23N/M24R/N25R/Y26L/P210E/G211E/L212V/INS213AAHM/I214K/T217L): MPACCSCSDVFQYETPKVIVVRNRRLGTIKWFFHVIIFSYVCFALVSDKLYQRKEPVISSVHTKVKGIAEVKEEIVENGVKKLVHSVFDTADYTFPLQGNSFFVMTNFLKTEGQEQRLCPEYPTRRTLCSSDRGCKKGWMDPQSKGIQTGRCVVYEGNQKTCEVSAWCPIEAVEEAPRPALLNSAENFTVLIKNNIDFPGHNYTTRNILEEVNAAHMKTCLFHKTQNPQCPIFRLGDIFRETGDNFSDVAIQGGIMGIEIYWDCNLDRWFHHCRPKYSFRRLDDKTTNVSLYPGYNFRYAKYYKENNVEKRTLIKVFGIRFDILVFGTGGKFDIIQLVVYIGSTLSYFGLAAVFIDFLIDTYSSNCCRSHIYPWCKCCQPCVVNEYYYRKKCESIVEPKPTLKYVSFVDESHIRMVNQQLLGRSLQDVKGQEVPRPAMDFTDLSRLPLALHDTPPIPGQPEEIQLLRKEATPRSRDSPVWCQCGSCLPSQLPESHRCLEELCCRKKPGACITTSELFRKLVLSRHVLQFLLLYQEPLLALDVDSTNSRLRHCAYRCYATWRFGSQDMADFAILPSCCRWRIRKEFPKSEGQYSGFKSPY
Also on record: method as in Allsopp et al., 2017. Particulars: chimera 210–217; ref Allsopp et al., 2017; cited from earlier work.

Experiment [6] deals with T3, P2X7R point mutant K110Y (Homo sapiens, UniProt Q99572, I21V/K110Y/M24R/N16P/N25R/Q22R/R20V/S23N/T19I/Y26L).
T3 construct: expressed in transfected cells; host or cells: Xenopus laevis oocytes (cRNA injection)
T3 sequence (Q99572 1-595 N16P/T19I/R20V/I21V/Q22R/S23N/M24R/N25R/Y26L/K110Y): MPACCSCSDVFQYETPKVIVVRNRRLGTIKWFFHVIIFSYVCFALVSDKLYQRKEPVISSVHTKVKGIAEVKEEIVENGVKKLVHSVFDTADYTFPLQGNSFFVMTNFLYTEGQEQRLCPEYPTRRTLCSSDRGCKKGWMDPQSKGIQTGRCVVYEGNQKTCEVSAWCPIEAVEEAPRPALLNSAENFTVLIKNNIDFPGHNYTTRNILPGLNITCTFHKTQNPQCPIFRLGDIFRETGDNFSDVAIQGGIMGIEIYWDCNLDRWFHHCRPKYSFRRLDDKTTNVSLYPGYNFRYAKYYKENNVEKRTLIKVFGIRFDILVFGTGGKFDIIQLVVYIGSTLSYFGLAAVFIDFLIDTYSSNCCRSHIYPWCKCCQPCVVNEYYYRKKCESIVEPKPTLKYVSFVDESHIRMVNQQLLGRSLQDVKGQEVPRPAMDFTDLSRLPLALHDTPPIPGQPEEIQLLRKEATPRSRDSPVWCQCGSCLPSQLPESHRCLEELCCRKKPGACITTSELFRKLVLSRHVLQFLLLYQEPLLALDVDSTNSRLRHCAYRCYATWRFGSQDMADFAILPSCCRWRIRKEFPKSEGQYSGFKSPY
Also on record: method as in Allsopp et al., 2017. To be noted: ref Allsopp et al., 2017; cited from earlier work.

For `COc1ccc(CC(=O)NC(N=C(NC#N)Nc2cccc3ncccc23)C(C)(C)C)cc1OC` (stereo not drawn) [A740003, N-[1-[[(cyanoamino)(5-quinolinylamino)methylene]amino]-2,2-dimethylpropyl]-3,4-dimethoxybenzeneacetamide], the entries for the “fold decrease in antagonist sensitivity relative to P2X7-2Nβ” value in experiment [1] and in experiment [2] were ~5 fold and ~4 fold, respectively. In experiment [3], the “effect on antagonist sensitivity relative to P2X7-2Nβ” value is given as “no effect”.
Regarding `Cl.Cl.O=C(CC12CC3CC(CC(C3)C1)C2)Nc1cccc2nc(NCCNCCO)ccc12` [AZ10606120, N-[2-[[2-[(2-hydroxyethyl)amino]ethyl]amino]-5-quinolinyl]-2-tricyclo[3.3.1.13,7]dec-1-ylacetamide dihydrochloride], in experiment [4], the “fold decrease in antagonist sensitivity” value is 40 fold. For the same compound, the “effect on antagonist sensitivity” value was “no change” in experiment [5] and “increased” in experiment [6].
